Tests used:
Type in all cases: biochemical
MMP-13 = MMP-13 (Homo sapiens, UniProt P45452); assay: MMP-13 inhibition (Table 1); conditions: read-out: IC50 (nM) MMP-13
MMP-9 = MMP-9 (Homo sapiens, UniProt P14780); assay: In Vitro Gelatinase Assay (MMP-9); conditions: human neutrophil gelatinase B
Experimental: The enzyme activity is measured by the rate of the color increase. The thiopeptide substrate was made up fresh as a 20 mM stock in 100% DMSO and the DTNB was dissolved in 100% DMSO as a 100 mM stock and stored in the dark at room temperature. The substrate and the DTNB were diluted together to 1 mM with substrate buffer (50 mM HEPES, pH 7.5, 5 mM CaCl2) before use. […] The assay buffer, enzyme. […] The increase in OD405 was plotted and the slope of the line was calculated. The slope represents the reaction rate.

TACE = target: T1, TACE (Homo sapiens, UniProt P78536); assay: Procedure for Measuring TACE Inhibition
T1 construct: purchased Immunex
T1 sequence (P78536 215-824): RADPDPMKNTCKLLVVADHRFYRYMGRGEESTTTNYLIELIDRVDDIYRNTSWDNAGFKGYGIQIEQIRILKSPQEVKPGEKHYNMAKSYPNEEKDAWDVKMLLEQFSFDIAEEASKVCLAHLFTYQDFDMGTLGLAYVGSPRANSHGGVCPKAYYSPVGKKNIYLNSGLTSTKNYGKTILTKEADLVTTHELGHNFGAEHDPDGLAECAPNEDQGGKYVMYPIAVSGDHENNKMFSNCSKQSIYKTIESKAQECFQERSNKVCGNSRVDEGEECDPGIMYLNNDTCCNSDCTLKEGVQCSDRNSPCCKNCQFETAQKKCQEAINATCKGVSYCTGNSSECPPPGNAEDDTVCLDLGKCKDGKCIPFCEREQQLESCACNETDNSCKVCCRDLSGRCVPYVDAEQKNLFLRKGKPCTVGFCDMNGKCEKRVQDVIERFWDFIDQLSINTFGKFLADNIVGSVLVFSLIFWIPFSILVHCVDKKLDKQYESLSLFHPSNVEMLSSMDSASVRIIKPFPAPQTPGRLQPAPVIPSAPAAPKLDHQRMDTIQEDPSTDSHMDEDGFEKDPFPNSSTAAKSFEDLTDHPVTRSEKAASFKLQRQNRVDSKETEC
Experimental: Procedure for Measuring TACE Inhibition
The plates were incubated for 10 minutes at room temperature. The reaction was initiated by addition of a fluorescent peptidyl substrate (final concentration 100 μM) to each well with shaking on a shaker for 5 sec.
The reaction was read (excitation 340 nm, emission 420 nm) for 10 min. and the increase in fluorescence over time was plotted as a linear line. The slope of the line was calculated and this represents the reaction rate. […] The mean (x±sem) of the control rate was calculated and compared for statistical significance (p<0.05) with drug-treated rates using Dunnett's multiple comparison test.

MMP-1 = target: T2, MMP-1 (Homo sapiens, UniProt P03956); assay: In Vitro Collagenase Assay (MMP-1); conditions: human recombinant fibroblast collagenase
T2 construct: human recombinant fibroblast collagenase (truncated, mw=18,828)
T2 sequence (P03956 100-269 limits assumed): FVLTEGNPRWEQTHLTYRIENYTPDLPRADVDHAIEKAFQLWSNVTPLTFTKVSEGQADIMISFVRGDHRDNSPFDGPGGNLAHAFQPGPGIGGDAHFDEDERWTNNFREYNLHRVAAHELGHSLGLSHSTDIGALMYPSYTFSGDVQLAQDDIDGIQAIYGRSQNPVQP
From the text: In Vitro Collagenase Assay
This assay was based on the cleavage of a peptide substrate ((Dnp-Pro-Cha-Gly-Cys(Me)-His-Ala-Lys(NMa)-NH2), available from Peptide International, Inc.) by collagenase releasing the fluorescent NMa group which was quantitated on the fluorometer as disclosed in Bickett et al., "A High Throughput Fluorogenic Substrate for Interstitial Collagenase (MMP-1) and Gelatinase (MMP-9)", Anal. Biochem., 212:58-64, (1993). Dnp quenches the NMa fluorescence in the intact substrate.
The assay was run in HCBC assay buffer (50 mM HEPES, pH 7.0, 5 mM Ca^+2, 0.02% Brij, 0.5% Cysteine), with human recombinant fibroblast collagenase (truncated, mw=18,828. from Wyeth-Ayerst Research, Radnor, Pa.). The substrate was dissolved in methanol and stored frozen in 1 mM aliquots. Collagenase was stored frozen in buffer in 25 μM aliquots. In conducting the assay, the substrate was dissolved in HCBC buffer to a final concentration of 10 μM and collagenase to a final concentration of 5 nM. The compounds being examined were dissolved in methanol, DMSO, or HCBC. The methanol and DMSO were diluted in HCBC to <1.0%. The compounds were added to a 96 well plate containing enzyme and the reaction was started by the addition of substrate.
The reaction was read (excitation 340 nm, emission 444 nm) for 10 min. and the increase in fluorescence over time was plotted as a linear line. The slope of the line was calculated representing the reaction rate. The linearity of the reaction rate was confirmed (r^2 >0.85). The mean (x±sem) of the control rate was calculated and compared for statistical significance (p<0.05) with drug-treated rates using Dunnett's multiple comparison test.

Chain of MMP-9 (P14780 94-707): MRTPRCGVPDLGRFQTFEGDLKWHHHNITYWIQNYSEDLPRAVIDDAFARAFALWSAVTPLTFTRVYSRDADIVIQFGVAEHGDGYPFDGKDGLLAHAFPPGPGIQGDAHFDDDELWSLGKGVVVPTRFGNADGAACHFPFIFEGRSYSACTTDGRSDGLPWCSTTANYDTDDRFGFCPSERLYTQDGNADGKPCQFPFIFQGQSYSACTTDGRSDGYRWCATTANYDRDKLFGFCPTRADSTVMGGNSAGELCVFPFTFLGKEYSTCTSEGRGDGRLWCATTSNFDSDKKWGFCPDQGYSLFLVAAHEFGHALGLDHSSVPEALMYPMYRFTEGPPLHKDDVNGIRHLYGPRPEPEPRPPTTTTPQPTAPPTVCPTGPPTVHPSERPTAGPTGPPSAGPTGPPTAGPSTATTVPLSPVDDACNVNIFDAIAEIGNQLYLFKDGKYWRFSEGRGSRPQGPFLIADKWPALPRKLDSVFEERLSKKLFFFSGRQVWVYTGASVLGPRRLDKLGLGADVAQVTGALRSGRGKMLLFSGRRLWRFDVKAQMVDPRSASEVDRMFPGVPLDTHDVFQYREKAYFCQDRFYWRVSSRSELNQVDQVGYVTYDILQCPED

Compound	IC50 (MMP-13) [nM]	IC50 (MMP-9) [nM]	IC50 (TACE) [nM]	IC50 (MMP-1) [nM]
COc1ccc(S(=O)(=O)N2Cc3ccccc3N(C(=O)COc3ccccc3)CC2C(=O)NO)cc1 (centres unmarked) [Example 58, 4-(4-Methoxybenzenesulfonyl)-1-(phenoxyacetyl)-2,3,4,5-tetrahydro-1H-[1,4]benzodiazepine-3-carboxylic acid, Hydroxamide]	2.9	4.4	154	65.5
COCC(=O)N1CC(C(=O)NO)N(S(=O)(=O)c2ccc(OC)cc2)Cc2cc(C)ccc21 (centres unmarked) [Example 59, 1-Methoxyacetyl-4-(4-methoxybenzenesulfonyl)-7-methyl-2,3-4,5-tetrahydro-1H-[1,4]benzodiazepine-3-carboxylic acid, hydroxyamine]	1.8	2.6	125 ± 6	105
COc1ccc(S(=O)(=O)N2Cc3cc(C)ccc3N(C(=O)c3ccccc3)CC2C(=O)NO)cc1 (centres unmarked) [Example 60, 1-Benzoyl-4-(4-methoxybenzenesulfonyl)-7-methyl-2,3,4,5-tetrahydro-1H[1,4]benzodianzepine-3-carboxylic acid, Hydroxyamide]	1.3	1.4	143	22.7
COc1ccc(S(=O)(=O)N2Cc3ccc(Cl)cc3N(C(=O)c3ccc(OC(F)(F)F)cc3)CC2C(=O)NO)cc1 (centres unmarked) [Example 61, 4-(4-Methoxybenzenesulfonyl)-1-[4-(trifluoromethoxy)benzoyl]-8-chloro-2,3,4,5-tetrahydro-1H-[1,4]benzodiazepine-3-carboxylic acid, Hydroxyamide]	0.4	1.3	1250 ± 69	239
COc1ccc(S(=O)(=O)N2Cc3cc(C)ccc3N(C(=O)c3ccccc3-n3cccn3)CC2C(=O)NO)cc1 (centres unmarked) [Example 63]	3.1	5.6	446 ± 48	130

More lines, now with the values ahead:

IC50 (MMP-13) [nM]	IC50 (MMP-9) [nM]	IC50 (TACE) [nM]	IC50 (MMP-1) [nM]	Compound
3.4	6.1	384	157	COc1ccc(S(=O)(=O)N2Cc3ccc(Cl)cc3N(C(=O)c3ccccc3N3CCOCC3)CC2C(=O)NO)cc1 (centres unmarked) [Example 64, 4-(4-Methoxybenzenesulfonyl)-1-[2-(4-morpholino)phenylcarbonyl}-8-chloro-2,3,4,5-tetrahydro-1H-[1,4]benzodiazepine-3-carboxylic acid, Hydroxyamide]
1.5	1.5	157	23.5	CCOc1ccc(C(=O)N2CC(C(=O)NO)N(S(=O)(=O)c3ccc(OC)cc3)Cc3ccccc32)cc1 (centres unmarked) [Example 65, 1-(4-Ethoxybenzoyl)-4-(4-methoxybenzenesulfonyl)-2,3,4,5-tetrahydro-1H-[1,4]benzodiazepine-3-carboxylic acid, Hydroxyamide]
2.6	3.4	148	83.4	COc1ccc(S(=O)(=O)N2Cc3ccccc3N(C(=O)c3ccc(-n4ccc(C)n4)cc3Cl)CC2C(=O)NO)cc1 (centres unmarked) [Example 66, 4-(4-Methoxybenzenesulfonyl)-1-[2-chloro-4-(3-methyl-1-pyrazolyl)phenylcarbonyl}-2,3,4,5-tetrahydro-1H-[1,4]benzodiazepine-3-carboxylic acid, Hydroxyamide]
73.9	50.8	551 ± 29	1320	COc1ccc(S(=O)(=O)N2Cc3ccccc3N(Cc3ccccc3)CC2C(=O)NO)cc1 (centres unmarked) [Example 67, 1-Benzyl-4-(4-methoxybenzenesulfonyl)-2,3,4,5-tetrahydro-1H-[1,4]benzodiazepine-3-carboxylic acid, Hydroxylamide]
1.3	2.4	136	41.3	COc1ccc(S(=O)(=O)N2Cc3ccccc3N(C(=O)c3ccc(OC)cc3OC)CC2C(=O)NO)cc1 (centres unmarked) [Example 71, 1-(2,4-Dimethoxybenzoyl)-4-(4-methoxybenzenesulfonyl)-2,3,4,5-tetrahydro-1H-[1,4]benzodiazepine-3-carboxylic acid, Hydroxyamide]
317	187	808	4980	COc1ccc(S(=O)(=O)N2Cc3ccccc3N(C(=O)CN3CCN(C)CC3)CC2C(=O)NO)cc1 (centres unmarked) [Example 72, 4-(4-Methoxybenzenesulfonyl)-1-[2-(4-methylpiperazin-1-yl)acetyl]-2,3,4,5-tetrahydro-1H-[1,4]benzodiazepine-3-carboxylic acid, Hydroxyamide]
